Experimental data reported in patent US4220795A, “Cyclobutyl substituted derivatives of prostaglandin analogs” (Miles Laboratories, Inc., priority 1978, dated 1980).
Converted amounts (≈) assume the structure as drawn.

What was measured:
femoral blood flow = assay: Effects on Femoral Blood Flow in the Dog (Test C); format: in vivo, dog (mongrel); conditions: anesthetized dog, intraarterial 0.001 to 10 mcg
Experimental: C. Evaluation of the Effects of Prostaglandin Analogs III on the Femoral Blood Flow in the Dog
The peripheral vasodilator or constrictor effects of test compounds were determined in mongrel dogs of either sex, weighing between 10 and 20 kg anesthestized intravenously with 35 mg/kg of sodium pentobarbital. An external iliac artery was dissected immediately above the femoral arch for a length of approximately 5 cm and a previously calibrated, non-connulating electromagnetic flowmeter sensor with a lumen between 2.5 and 3.5 mm was placed snugly around the vessel. Cannulas were placed in a branch of the artery arising distally to the location of the flowmeter sensor for intraarterial drug administrations, in the contralateral femoral artery for systemic blood pressure recordings and in the trachea for artificial respiration with room air. Femoral blood flow and systemic blood pressure were continuously recorded with an electromagnetic flowmeter and pressure transducer, respectively.
After an adequate control period, test compounds were injected intraarterially at one log-spaced doses ranging from 0.001 to 10 mcg., in a volume of 0.5 ml and at 5 to 10 min intervals. Maximum changes in bloodflow, as well as any variations in blood pressure, were tabulated for each dose in absolute values (ml/min and mmHg). The calculations were made taking as control values those existing immediately before administration of each dose. The direction of the observed change (+ for increase and - for decrease) was also noted. The dose changing bloodflow by 100 ml/min (ED100 ml/min) was calculated graphically and was used for scoring activity as follows: […]

blood pressure = assay: Effects on Blood Pressure and Heart Rate in the Anesthetized Cat (Test D); format: in vivo; conditions: Felis catus, iv, i.v. 0.01 to 10.0 mcg/kg, scored on hypotension, read-out: Activity value, Test D: Normal Feline Blood Pressure and Heart Rate (ED50 mmHg)
Experimental: D. Evaluation of the Effects of Prostaglandin Analogs III on Blood Pressure and Heart Rate in the Anesthetized Cat
The acute effects of test compounds on blood pressure and heart rate were determined in cats of either sex anesthetized with a mixture of pentobarbital sodium (35 mg/kg, i.v.) and barbital sodium (100 mg/kg, i.v.). Cannulas were placed in the trachea to allow adequate spontaneous ventilation, in a femoral artery for blood pressure recording with a strain gage transducer, and in a saphenous vein for drug administration. Heart rate was recorded by means of a cardiotachometer driven by the R wave of the electrocardiogram. After a period of 10 min of stable recordings of blood pressure and heart rate, the test compound was administered intravenously at doses increasing from 0.01 to 10.0 mcg/kg, spaced one log and injected at 10 min intervals. All doses were injected in a volume of 0.1 ml/kg. Modifications of blood pressure and heart rate induced by the test compound were expressed both in absolute units (mmHg and beats/min) and as percent of values recorded immediately before administration of each dose. Biphasic responses were tabulated in the order in which they occur. The direction of the observed changes was also noted (+ for increase and - for decrease).
Activity of compounds in this test was judged only on the basis of the degree of hypotension observed. Thus, the ED50 mmHg (dose decreasing blood pressure by 50 mmHg) was calculated graphically and the compound scored according to the following scale: […]

[1] = tested on: blood pressure (hypertensive rat); assay: Effects on Blood Pressure in the Hypertensive Rat (Test E); format: in vivo; set-up: key: 0: Not significant at any time interval; 1: Significant at one time interval; 2: Significant at two time intervals; 3: Significant at three time intervals; 4: Significant at all four intervals; conditions: 1 mg/kg intraperitoneal, 2, 4, 6 and 8 hr
Experimental: E. Evaluation of the Effects of Prostaglandin Analogs III on Blood Pressure in the Hypertensive Rat
The acute antihypertensive activity of test compounds is determined in rats made hypertensive by the procedure of Grollman (A. Proc. Soc. Exper. Biol. Med., 57:102, [1944]). Female rats weighing between 60 and 100 g are anesthetized with ether, the right kidney approached through a flank retroperitoneal incision, decapsulated and tied with a figure-of-eight ligature. The animals are left to recover and two weeks later are again anesthetized and the contralateral kidney removed. Four weeks after the second operation the rats are subjected to indirect blood pressure measurements and those showing systolic pressure values greater than 160 mmHg are selected for drug testing.
Blood pressure is measured in the tail with an inflatable occluding cuff placed at the base of the extremity and a pulse detector located distally. The cuff is inflated to approximately 300 mmHg and is slowly deflated until pulsations appear, indicating the level of systolic pressure; diastolic pressure is not recorded by this procedure. All measurements are carried out in unanesthetized, unsedated animals maintained in a warm environment during the recording procedure and for at least 6 hr before. In all cases, three pressure readings are obtained in succession and mean values are calculated thereof.
Experiments are carried out in groups of five hypertensive rats in which systolic pressure is determined immediately before and 2, 4, 6 and 8 hr after the intraperitoneal administration of the test compound at a dose of 1 mg/kg. Drugs are diluted from stock solutions with phosphate buffer (Lee et al., Prostaglandins 3:29 [1973]), so as to inject this quantity in a volume of 1 ml/kg. Changes from control blood pressure values are calculated for each interval both in mmHg and in per-cent, and evaluated for significance by means of Wilcoxon's signed rank test (Wilcoxon and Wilcox, Some rapid approximate statistical procedures, Lederle Laboratories, Pearl River [1964]).

rat uterus = assay: Effects on the Rat Uterus (Test F); conditions: rat uterus segments, 0.001 to 10.0 mcg/ml, 29° C.; read-out: Activity value, Test F: Effects on Rat Uterus (ED50, response of 50% that of carbachol)
Experimental: F. Evaluation of the Effects of Prostaglandin Analogs III on the Rat Uterus
The uterine stimulant effect of test compounds is determined in segments of uterus obtained from rats (140-160 g) pretreated subcutaneously with 1 mg/kg of diethylstibesterol 18 hr before the experiment. The tissues are placed in 10 ml chambers filled with de-Jalon solution at 29° C. and bubbled with 95% O2 and 5% CO2, and prepared for isometric recording with force displacement transducers. Preparations are stretched to an initial tension of 1 g and are left undisturbed for 30 min, after which two responses to 1 mcg/ml of carbachol added to the bath at a 10 min interval, are obtained (the value of the second response is recorded). Responses to increasing concentrations of the test compound (0.001 to 10.0 mcg/ml with one log intervals) are then recorded every 10 min. Preparations are washed four times after each response. All doses of drugs are administered in a 0.1 ml volume. Since it has been observed that the magnitude of the second response to carbachol, which is approximately 10% greater than the first, is close to the maximal response of the tissue, such value is taken as a measure of the sensititity of the particular segment. Responses to each concentration of the test compound are expressed in terms of percentage of the second response to carbachol and the ED50 (dose producing a response of 50% that of carbachol) is calculated graphically. Activity is scored according to the following scale: […]

Compound | EC50 (rat uterus) | Activity value, Test C: Increase in Canidae Femoral Blood Flow (ED100 ml/min) (femoral blood flow) | ED (50 mmHg) (blood pressure) | Activity value, Test E: Effects on Blood Pressure in Hypertensive Rat (blood pressure decrease) [1]
CCC1CC([C@@H](O)/C=C/[C@H]2[C@H](O)CC(=O)[C@@H]2CCCCCCC(=O)OC)C1 (stereo partly drawn) [TR-4248, Methyl 11α,15R-dihydroxy-16,18-methano-9-oxoprost-13E-en-1-oate] | 0.101 to 1 µg/mL (≈ 0.265 to 2.63 µM) | 2 (0.11-1.0) | 0.00011 to 0.001 mg/kg | 1
CCC1CC([C@H](O)/C=C/[C@H]2[C@H](O)CC(=O)[C@@H]2CCCCCCC(=O)OC)C1 (stereo partly drawn) [TR-4249, Methyl 11α,15S-dihydroxy-16,18-methano-9-oxoprost-13E-en-1-oate] | > 10 µg/mL | 0 (>10.0) | > 0.0101 mg/kg | 0
CCC1CC([C@@H](O)/C=C/[C@H]2C=CC(=O)[C@@H]2CCCCCCCOC(C)=O)C1 (stereo partly drawn) [TR-4568, 1-Acetoxy-15R-hydroxy-16,18-methanoprosta-10,13E-dien-9-one] | > 10 µg/mL | 0 (>10.0) | > 0.0101 mg/kg | 0
CCC1CC([C@@H](O)/C=C/[C@H]2[C@H](O)CC(=O)[C@@H]2CCCCCCCO)C1 (stereo partly drawn) [TR-4569, 16,18-Methano-1,11α,15R-trihydroxyprost-13E-en-9-one] | > 10 µg/mL | 0 (>10.0) | > 0.0101 mg/kg | 0
CCC1CC([C@H](O)/C=C/[C@H]2[C@H](O)CC(=O)[C@@H]2CCCCCCCO)C1 (stereo partly drawn) [TR-4570, 16,18-Methano-1,11α,15S-trihydroxyprost-13E-en-9-one] | 0.101 to 1 µg/mL (≈ 0.287 to 2.84 µM) | 0 (>10.0) | > 0.0101 mg/kg | 0
CCCCC1([C@H](O)/C=C/[C@H]2[C@H](O)CC(=O)[C@@H]2CCCCCCCO)CCC1 [TR-4645, 16,16-Propano-1,11α,15R-trihydroxyprost-13E-en-9-one] | > 10 µg/mL | 1 (1.0.-10.0) | > 0.0101 mg/kg | 0
CCCCC1([C@@H](O)/C=C/[C@H]2[C@H](O)CC(=O)[C@@H]2CCCCCCCO)CCC1 [TR-4646, 16,16-Propano-1,11α,15S-trihydroxyprost-13E-en-9-one] | > 10 µg/mL | 0 (>10.0) | > 0.0101 mg/kg | 0

Continued, in another order:

EC50 (rat uterus) | Compound | Activity value, Test C: Increase in Canidae Femoral Blood Flow (ED100 ml/min) (femoral blood flow) | ED (50 mmHg) (blood pressure) | Activity value, Test E: Effects on Blood Pressure in Hypertensive Rat (blood pressure decrease) [1]
> 10 µg/mL | CC1([C@H](O)/C=C/[C@H]2[C@H](O)CC(=O)[C@@H]2CCCCCCCO)CCC1 [TR-4673, 16,19-Cyclo-16-methyl-20-nor-1,11α,15R-trihydroxyprost-13E-en-9-one] | 0 (>10.0) | > 0.0101 mg/kg | 1
0.01 to 0.1 µg/mL (≈ 0.0245 to 0.245 µM) | CCCCC1([C@@H](O)/C=C/[C@H]2[C@H](O)CC(=O)[C@@H]2CCCCCCC(=O)OC)CCC1 [TR-4677, Methyl 11α,15S-dihydroxy-9-oxo-16-,16-propanoprost-13E-en-1-oate] | 0 (>10.0) | > 0.0101 mg/kg | 0
> 10 µg/mL | CCC1CC(C)([C@@H](O)/C=C/[C@H]2[C@H](O)CC(=O)[C@@H]2CCCCCCC(=O)OC)C1 (stereo partly drawn) [TR-4682, Methyl 11α,15S-dihydroxy-16,18-methano-16-methyl-9-oxoprost-13E-en-1-oate] | 3 (0.01-0.1) | 0.00101 to 0.01 mg/kg | 0
> 10 µg/mL | CCC1CC(C)([C@H](O)/C=C/[C@H]2[C@H](O)CC(=O)[C@@H]2CCCCCCCO)C1 (stereo partly drawn) [TR-4688, 16,18-Methano-16-methyl-1,11α,15R-trihydroxyprost-13E-en-9-onc] | 0 (>10.0) | > 0.0101 mg/kg | 0
> 10 µg/mL | COC(=O)CCCCCC[C@H]1C(=O)C[C@@H](O)[C@@H]1/C=C/[C@@H](O)C1(C)CCC1 [TR-4690, Methyl 16,19-cyclo-11α,15R-dihydroxy-16-methyl-20-nor-9-oxoprost-13E-en-1-oate] | 2 (0.11-1.0) | 0.00101 to 0.01 mg/kg | 0
> 10 µg/mL | COC(=O)CCCCCC[C@H]1C(=O)C[C@@H](O)[C@@H]1/C=C/[C@H](O)C1(C)CCC1 [TR-4691, Methyl 16,19-cyclo-11α,15S-dihydroxy-16-methyl-20-nor-9-oxoprost-13E-en-1-oate] | 2 (0.11-1.0) | > 0.0101 mg/kg | 0
